Each compound was assayed against JAK2 (recombinant purified GST-tagged catalytic domain) (Homo sapiens (Human), UniProt O60674) (assay: biochemical).
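Also: biochemical JAK kinase assay with HTRF detection.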

Chain of JAK2 (recombinant purified GST-tagged catalytic domain) (O60674 849-1124): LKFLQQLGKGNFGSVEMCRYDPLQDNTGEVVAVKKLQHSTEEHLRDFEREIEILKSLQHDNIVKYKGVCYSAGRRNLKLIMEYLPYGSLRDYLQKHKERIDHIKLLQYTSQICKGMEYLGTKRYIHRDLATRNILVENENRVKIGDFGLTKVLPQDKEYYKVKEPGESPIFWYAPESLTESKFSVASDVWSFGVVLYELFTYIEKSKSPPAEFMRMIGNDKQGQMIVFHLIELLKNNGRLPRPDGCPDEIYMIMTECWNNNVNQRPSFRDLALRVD

**Q.** `CN(C)[C@@H]1CC[C@H](n2cc(C(N)=O)c(Nc3ccc(C(F)(F)F)nc3)n2)[C@@H](C#N)C1` (single isomer, unassigned) [Example 28-25, 1-[(1S,2S,4R or 1R,2R,4S)-2-cyano-4-(dimethylamino)cyclohexyl]-3-{[6-(trifluoromethyl)pyridin-3-yl]amino}-1H-pyrazole-4-carboxamide] was tested. Which IC50 did it give?
**A.** 155 nM

**Q.** Which IC50 does the source give for `CC1(CN[C@H]2CC[C@H](n3cc(C(N)=O)c(Nc4ccc(C(F)(F)F)cc4)n3)[C@@H](C#N)C2)COC1` (single isomer, unassigned) [Example 28-26, 1-[(1S,2S,4S or 1R,2R,4R)-2-cyano-4-{[(3-methyloxetan-3-yl)methyl]amino}cyclohexyl]-3-{[4-(trifluoromethyl)phenyl]amino}-1H-pyrazole-4-carboxamide] here?
**A.** 35 nM

**Q.** With `CN(C)[C@H]1CC[C@@H](n2cc(C(N)=O)c(Nc3ccc(C(F)(F)F)nc3)n2)[C@H](C#N)C1` (single isomer, unassigned) [Example 28-27, 1-[(1R,2R,4S or 1S,2S,4R)-2-cyano-4-(dimethylamino)cyclohexyl]-3-{[6-(trifluoromethyl)pyridin-3-yl]amino}-1H-pyrazole-4-carboxamide] as the compound, how does the IC50 read?
**A.** 800 nM

**Q.** With `N#C[C@H]1C[C@@H](N2CCC2)CC[C@@H]1n1cc(C(N)=O)c(Nc2ccc(Cl)c(F)c2)n1` (single isomer, unassigned) [Example 28-36, 1-[(1S,2S,4S or 1R,2R,4R)-4-azetidin-1-yl-2-cyanocyclohexyl]-3-[(4-chloro-3-fluorophenyl)amino]-1H-pyrazole-4-carboxamide] as the compound, how does the IC50 read?
**A.** 84 nM

**Q.** `N#C[C@H]1C[C@H](N2CCC2)CC[C@@H]1n1cc(C(N)=O)c(Nc2ccc(Cl)c(F)c2)n1` (single isomer, unassigned) [Example 28-37, 1-[(1S,2S,4R or 1R,2R,4S)-4-azetidin-1-yl-2-cyanocyclohexyl]-3-[(4-chloro-3-fluorophenyl)amino]-1H-pyrazole-4-carboxamide] was tested. Which IC50 did it give?
**A.** 120 nM

**Q.** With `CN[C@@H]1CC[C@H](n2cc(C(N)=O)c(Nc3ccc(Cl)c(F)c3)n2)[C@@H](C#N)C1` (single isomer, unassigned) [Example 28-39, 3-[(4-chloro-3-fluorophenyl)amino]-1-[(1S,2S,4R or 1R,2R,4S)-2-cyano-4-(methylamino)cyclohexyl]-1H-pyrazole-4-carboxamide] as the compound, how does the IC50 read?
**A.** 35 nM

**Q.** With `CN[C@H]1CC[C@H](n2cc(C(N)=O)c(Nc3ccc(Cl)c(F)c3)n2)[C@@H](C#N)C1` (single isomer, unassigned) [Example 28-43, 3-[(4-chloro-3-fluorophenyl)amino]-1-[(1S,2S,4S or 1R,2R,4R)-2-cyano-4-(methylamino)cyclohexyl]-1H-pyrazole-4-carboxamide] as the compound, how does the IC50 read?
**A.** 26 nM

**Q.** With `CC1(C)CN([C@@H]2CC[C@H](n3cc(C(N)=O)c(Nc4ccc([C@H](O)C(F)(F)F)cc4)n3)[C@@H](C#N)C2)C1` (single isomer, unassigned) [Example 28-44, 1-[(1S,2S,4R or 1R,2R,4S)-2-cyano-4-(3,3-dimethylazetidin-1-yl)cyclohexyl]-3-({4-[(1S or 1R)-2,2,2-trifluoro-1-hydroxyethyl]phenyl}amino)-1H-pyrazole-4-carboxamide] as the compound, how does the IC50 read?
**A.** 11 nM

**Q.** For `N#C[C@H]1C[C@@H](N2CCC2)CC[C@@H]1n1cc(C(N)=O)c(Nc2ccc([C@H](O)C(F)(F)F)cc2)n1` (single isomer, unassigned) [Example 28-47, 1-[(1S,2S,4S or 1R,2R,4R)-4-azetidin-1-yl-2-cyanocyclohexyl]-3-({4-[(1S or 1R)-2,2,2-trifluoro-1-hydroxyethyl]phenyl}amino)-1H-pyrazole-4-carboxamide], which IC50 is on record?
**A.** 11 nM

**Q.** Which IC50 does the source give for `CN(C)[C@@H]1CC[C@H](n2cc(C(N)=O)c(Nc3ccc(OC(F)(F)F)cc3)n2)[C@@H](C#N)C1` (single isomer, unassigned) [Example 28-54, 1-[(1S,2S,4R or 1R,2R,4S)-2-cyano-4-(dimethylamino)cyclohexyl]-3-{[4-(trifluoromethoxy)phenyl]amino}-1H-pyrazole-4-carboxamide] here?
**A.** 92 nM

**Q.** With `CC1(C)CN([C@H]2CC[C@H](n3cc(C(N)=O)c(Nc4ccc([C@@H](O)C(F)(F)F)cc4)n3)[C@@H](C#N)C2)C1` (single isomer, unassigned) [Example 28-61, 1-[(1S,2S,4S or 1R,2R,4R)-2-cyano-4-(3,3-dimethylazetidin-1-yl)cyclohexyl]-3-({4-[(1R or 1S)-2,2,2-trifluoro-1-hydroxyethyl]phenyl}amino)-1H-pyrazole-4-carboxamide] as the compound, how does the IC50 read?
**A.** 4 nM

**Q.** For `N#C[C@H]1C[C@H](N2CCC2)CC[C@@H]1n1cc(C(N)=O)c(Nc2ccc([C@H](O)C(F)(F)F)cc2)n1` (single isomer, unassigned) [Example 28-65, 1-[(1S,2S,4R or 1R,2R,4S)-4-azetidin-1-yl-2-cyanocyclohexyl]-3-({4-[(1S or 1R)-2,2,2-trifluoro-1-hydroxyethyl]phenyl}amino)-1H-pyrazole-4-carboxamide], which IC50 is on record?
**A.** 12 nM

**Q.** How did the IC50 turn out when `N#C[C@H]1C[C@@H](N2CCC2)CC[C@@H]1n1cc(C(N)=O)c(Nc2ccc(C=O)cc2)n1` (single isomer, unassigned) [Example 28-66, 1-[(1S,2S,4S or 1R,2R,4R)-4-azetidin-1-yl-2-cyanocyclohexyl]-3-[(4-formylphenyl)amino]-1H-pyrazole-4-carboxamide] was run?
**A.** 16 nM

**Q.** With `CC1(C)CN([C@@H]2CC[C@H](n3cc(C(N)=O)c(Nc4ccc([C@@H](O)C(F)(F)F)cc4)n3)[C@@H](C#N)C2)C1` (single isomer, unassigned) [Example 28-81, 1-[(1S,2S,4R or 1R,2R,4S)-2-cyano-4-(3,3-dimethylazetidin-1-yl)cyclohexyl]-3-({4-[(1R or 1S)-2,2,2-trifluoro-1-hydroxyethyl]phenyl}amino)-1H-pyrazole-4-carboxamide] as the compound, how does the IC50 read?
**A.** 24 nM

**Q.** `N#C[C@H]1C[C@H](N2CCC2)CC[C@@H]1n1cc(C(N)=O)c(Nc2ccc([C@@H](O)C(F)(F)F)cc2)n1` (single isomer, unassigned) [Example 28-85, 1-[(1S,2S,4R or 1R,2R,4S)-4-azetidin-1-yl-2-cyanocyclohexyl]-3-({4-[(1R or 1S)-2,2,2-trifluoro-1-hydroxyethyl]phenyl}amino)-1H-pyrazole-4-carboxamide] was tested. Which IC50 did it give?
**A.** 17 nM

**Q.** For `CN(C)[C@H]1CC[C@H](n2cc(C(N)=O)c(Nc3ccc(OC(F)(F)F)cc3)n2)[C@@H](C#N)C1` (single isomer, unassigned) [Example 28-86, 1-[(1S,2S,4S or 1R,2R,4R)-2-cyano-4-(dimethylamino)cyclohexyl]-3-{[4-(trifluoromethoxy)phenyl]amino}-1H-pyrazole-4-carboxamide], which IC50 is on record?
**A.** 18 nM

**Q.** How did the IC50 turn out when `N#C[C@H]1C[C@@H](N2CCC2)CC[C@@H]1n1cc(C(N)=O)c(Nc2ccc([C@@H](O)C(F)(F)F)cc2)n1` (single isomer, unassigned) [Example 28-87, 1-[(1S,2S,4S or 1R,2R,4R)-4-azetidin-1-yl-2-cyanocyclohexyl]-3-({4-[(1R or 1S)-2,2,2-trifluoro-1-hydroxyethyl]phenyl}amino)-1H-pyrazole-4-carboxamide] was run?
**A.** 13 nM

**Q.** For `CC1(C)CN([C@H]2CC[C@H](n3cc(C(N)=O)c(Nc4ccc([C@H](O)C(F)(F)F)cc4)n3)[C@@H](C#N)C2)C1` (single isomer, unassigned) [Example 28-93, 1-[(1S,2S,4S or 1R,2R,4R)-2-cyano-4-(3,3-dimethylazetidin-1-yl)cyclohexyl]-3-({4-[(1S or 1R)-2,2,2-trifluoro-1-hydroxyethyl]phenyl}amino)-1H-pyrazole-4-carboxamide], which IC50 is on record?
**A.** 5 nM

**Q.** With `N#C[C@H]1C[C@H](NCC(F)F)CC[C@@H]1n1cc(C(N)=O)c(Nc2ccnc(F)c2)n1` (single isomer, unassigned) [Example 28-106, 1-{(1S,2S,4R or 1R,2R,4S)-2-cyano-4-[(2,2-difluoroethyl)amino]cyclohexyl}-3-[(2-fluoropyridin-4-yl)amino]-1H-pyrazole-4-carboxamide] as the compound, how does the IC50 read?
**A.** 53 nM

**Q.** `N#C[C@H]1C[C@@H](NCC(F)(F)F)CC[C@@H]1n1cc(C(N)=O)c(Nc2ccc(S(=O)(=O)C(F)(F)F)cc2)n1` (single isomer, unassigned) [Example 28-107, 1-{(1S,2S,4S or 1R,2R,4R)-2-cyano-4-[(2,2,2-trifluoroethyl)amino]cyclohexyl}-3-({4-[(trifluoro-methyl)sulfonyl]phenyl}amino)-1H-pyrazole-4-carboxamide] was tested. Which IC50 did it give?
**A.** 31 nM

**Q.** For `N#C[C@H]1C[C@@H](NCC(F)F)CC[C@@H]1n1cc(C(N)=O)c(Nc2ccnc(F)c2)n1` (single isomer, unassigned) [Example 28-115, 1-{(1S,2S,4S or 1R,2R,4R)-2-cyano-4-[(2,2-difluoroethyl)amino]cyclohexyl}-3-[(2-fluoropyridin-4-yl)amino]-1H-pyrazole-4-carboxamide], which IC50 is on record?
**A.** 33 nM

**Q.** With `CS(=O)(=O)c1ccc(Nc2nn([C@H]3CC[C@H](N4CC5(CCC5)C4)C[C@@H]3C#N)cc2C(N)=O)cc1` (single isomer, unassigned) [Example 28-130, 1-[(1S,2S,4S or 1R,2R,4R)-4-(2-azaspiro[3.3]hept-2-yl)-2-cyanocyclohexyl]-3-{[4-(methylsulfonyl)phenyl]amino}-1H-pyrazole-4-carboxamide] as the compound, how does the IC50 read?
**A.** 5 nM

**Q.** With `N#C[C@H]1C[C@@H](N2CC3(CCC3)C2)CC[C@@H]1n1cc(C(N)=O)c(Nc2ccccc2)n1` (single isomer, unassigned) [Example 28-136, 1-[(1S,2S,4S or 1R,2R,4R)-4-(2-azaspiro[3.3]hept-2-yl)-2-cyanocyclohexyl]-3-(phenylamino)-1H-pyrazole-4-carboxamide] as the compound, how does the IC50 read?
**A.** 61 nM

**Q.** For `N#C[C@H]1C[C@@H](NC2CC2)CC[C@@H]1n1cc(C(N)=O)c(Nc2ccc(C(F)(F)F)cc2)n1` (single isomer, unassigned) [Example 28-137, 1-[(1S,2S,4S or 1R,2R,4R)-2-cyano-4-(cyclopropylamino)cyclohexyl]-3-{[4-(trifluoromethyl)phenyl]amino}-1H-pyrazole-4-carboxamide], which IC50 is on record?
**A.** 22 nM

**Q.** How did the IC50 turn out when `N#C[C@H]1C[C@H](NC2CC2)CC[C@@H]1n1cc(C(N)=O)c(Nc2ccc(C(F)(F)F)cc2)n1` (single isomer, unassigned) [Example 28-139, 1-[(1S,2S,4R or 1R,2R,4R)-2-cyano-4-(cyclopropylamino)cyclohexyl]-3-{[4-(trifluoromethyl)phenyl]amino}-1H-pyrazole-4-carboxamide] was run?
**A.** 113 nM

— US8962608B2, “Cycloalkylnitrile pyrazole carboxamides as janus kinase inhibitors” (Merck Sharp & Dohme Corp., priority 2011, dated 2015)
